The text below walks through data of patent US12545896B2, “Growth inhibitor” (Orizuru Therapeutics, Inc., priority 2019, dated 2026).

Assay [1] deals with insulin-producing cell population obtained by the differentiation from iPS cells (CHGA-negative cells; insulin-positive and NKX6.1-positive cells). In words: Insulin-producing cell population treated with PLK inhibitor for 7 days in 30 mL reactor for culture (Example 2). It is filed as cell-based. The note with it: 3 μM, 7 days treatment.
Description: Specifically, the endocrine progenitor cell population obtained by the differentiation from iPS cells was cultured for 4 days in a medium for induction of differentiation in a 30 mL reactor for culture and thereby differentiated into an insulin-producing cell population.
For a control, the endocrine progenitor cell population obtained by the differentiation from iPS cells was cultured for 11 days in a medium for induction of differentiation in a 30 mL reactor for culture and thereby differentiated into an insulin-producing cell population.
Assay [2] has the same test system. In words: Flow cytometry of insulin-producing cell population treated with PLK inhibitor for last 4 days of differentiation (Example 1). The conditions noted are these: 3 μM; for Proportion of CHGA-negative and Ki67-negative cells / Proportion of CHGA-negative and Ki67-positive cells / Proportion of insulin-positive and NKX6.1-positive cells: 4 days treatment, flow cytometry. It is filed as cell-based. For orientation: Flow cytometry measures light scatter and fluorescence of single cells or particles in a stream.
Excerpt: The number of CHGA-negative (and Ki67-positive or Ki67-negative) cells in the cell population obtained by each of the above methods 1) and 2) was counted by flow cytometry to determine the proportion of unintended cells, that is, a CHGA-negative (and Ki67-positive or Ki67-negative) rate, in each cell population.
The number of insulin-positive and NKX6.1-positive cells in the cell population obtained by each of the above methods 1) and 2) was counted by flow cytometry to determine the proportion of the cells of interest, that is, insulin-positive and NKX6.1-positive cells, in each method.

Setting [3] is: last 4 days of differentiation into insulin-producing cells.

SMILES strings stand for the structures.

Turning to `COc1ccc2c(c1)[C@@]1(C[C@@H]1c1ccc3c(/C=C/c4ccc(CN5C[C@@H](C)O[C@@H](C)C5)cc4)n[nH]c3c1)C(=O)N2` [CAS1338800-06-8, (1S,2R)-2-[3-[(1E)-2-[4-[[(2R,6S)-2,6-dimethyl-4-morpholinyl]methyl]phenyl]ethenyl]-1H-indazol-6-yl]-5′-methoxy-spiro[cyclopropane-1,3′-[^3H]indol]-2′(1′H)-one], in assay [1], the “Proportion of CHGA-negative cells (both Ki67-positive and Ki67-negative) as compared with a control” value is listed as “markedly decreased”; the “Proportion of insulin-positive (and NKX6.1-positive) cells as compared with a control” value is “markedly increased”. Further, in assay [2] (first experiment), the “Proportion of CHGA-negative and Ki67-negative cells” value is on record as 11.4%; the “Proportion of CHGA-negative and Ki67-positive cells” value was determined as 0.8%; the “Proportion of insulin-positive and NKX6.1-positive cells” value was found to be 22.4%. Further, in assay [2] (second experiment), the “Proportion of CHGA-negative and Ki67-negative cells” value is 12.4%; the “Proportion of CHGA-negative and Ki67-positive cells” value is 0.2%; the “Proportion of insulin-positive and NKX6.1-positive cells” value came to 23.0%. In addition, in assay [2] (setting [3]), the “Proportion of CHGA-negative cells (both Ki67-positive and Ki67-negative) as compared with a control” value is listed as “markedly decreased”; the “Proportion of the cells of interest (insulin-positive and NKX6.1-positive cells) as compared with a control” value was “markedly increased”.
